In article PMC4942689, “Deciphering the function of the CNGB1b subunit in olfactory CNG channels” (Scientific Reports, 2016):
“And” between values parts separate entries of the source, which are not always exact repeats. Equal entries are not always repeated. Where two headings read alike, the source gives them in different places.

Experiments:
[1] = tested on: homotetrameric CNGA2TM (T539M) channels; conditions: cited from earlier work
[2] = molecular target: T1, CNGA2TM:A4RE:B1bRE (Rattus norvegicus, UniProt A0A8I5ZN27+Q00195+Q64359, R1106E/R430E/T539M); assay: Ligand binding, confocal patch-clamp fluorometry; parameters: key: +: ligand binding to the respective modulatory subunits was either observed or not; −: ligand binding to the respective modulatory subunits was either observed or not; conditions: 10 μM; construct CNGA2TM:A4RE:B1bRE
T1 construct: expressed in transfected cells; host or cells: Xenopus laevis oocytes (cRNA injection), excised inside-out patches
From the text: The channels to be studied were expressed in Xenopus oocytes. We first tested the subunit composition in our channels when coexpressing different combinations of subunits by single-channel recordings. For CNGA2:A4, CNGA2:B1b and CNGA2:A4:B1b channels we exclusively obtained the specific and easily distinguishable single-channel activity reported earlier when injecting respective amounts of RNA[7][13]. We therefore assumed that the channels formed had always the expected subunit composition. The specific binding of cyclic nucleotides and the activation of the CNG channels were measured in parallel by means of confocal patch-clamp fluorometry in excised patches, using fluorescent cyclic nucleotide derivatives. The method has been described previously.
To verify the hypothesis that the CNGB1b subunit in CNGA2:A4:B1b channels binds cyclic nucleotides, we coexpressed CNGB1b with CNGA4RE and either CNGA2RE or CNGA2TM and measured ligand binding in the presence of 10 μM fcGMP. […]
The ligand binding was measured in macropatches by patch-clamp fluorometry[41][42] combined with confocal microscopy. […] To distinguish between the fluorescence of the unbound ligands from that of the bound ligands, a second dye, DY647 (Dyomics, Jena, Germany), was added to the bath solution. […]

[3] = tested on: CNGA2TM:A4 channels; parameters: method as in PMID 22786723; conditions: cited from earlier work
[4] = molecular target: T2, CNGA2RE:A4RE:B1b (Rattus norvegicus, UniProt A0A8I5ZN27+Q00195+Q64359, R430E/R538E); assay: Concentration-activation relationship and activation by fluorescent ligands, patch-clamp; assay type: biochemical
T2 construct: expressed in transfected cells; host or cells: Xenopus laevis oocytes (cRNA injection), excised inside-out patches
Protocol: (§1) In order to determine the apparent affinity of the modulatory subunits in heterotetrameric CNGA2:A4:B1b channels for cGMP, we coexpressed each of them with disabled neighbored subunits, generating themselves activation effects only at much higher ligand concentrations. In case of two well-separated current components, this would allow us to determine the EC50 value for the CNGB1b and CNGA4 subunit in functional heterotetrameric channels. Patch-clamp experiments were performed using an Axopatch 200B amplifier (Molecular Devices LLC, CA, U.S.A.) in the inside-out configuration. The patch pipettes for recording of macroscopic currents were pulled from borosilicate glass tubing (outer diameter 2.0 mm, inner diameter 1.0 mm; Hilgenberg GmbH, Germany). […] The patches were formed as pushed inside-out patches. […] Cyclic nucleotide concentration jumps were performed using a double-barreled glass pipette mounted on a piezo-driven device. Intracellular (bath) and extracellular (pipette) solutions contained (mM) 150 KCl, 1 EGTA, 5 Hepes, pH = 7.4 with KOH. […] Currents in the absence of the cyclic nucleotide were subtracted. All patches included in this study were first tested for channel expression in the presence of a saturating ligand concentration. Only patches with large current, i.e. a large number of channels, were included in our statistics. The currents were measured at +10 mV or, if mentioned, at +100 mV. Fits of equations to data points were performed with the 8.1G® software (OriginLab Corporation, Northampton, U.S.A.). Concentration-activation relationships were obtained by relating the actual current amplitude, I, to the maximum current amplitude elicited by a saturating concentration of ligand, Imax, and plotting this ratio as function of the ligand concentration, x.

[5] = molecular target: T3, CNGA2:A4 channels (Rattus norvegicus, UniProt Q00195+Q64359); assay: Concentration-activation relationship, inside-out patch-clamp; assay type: biochemical
T3 construct: expressed in transfected cells; host or cells: Xenopus laevis oocytes (cRNA injection), excised inside-out patches
Protocol: as §1, with “Patch-clamp” for “In order to determine the apparent affinity of the modulatory subunits in heterotetrameric CNGA2:A4:B1b channels for cGMP, we coexpressed each of them with disabled neighbored subunits, generating themselves activation effects only at much higher ligand concentrations. In case of two well-separated current components, this would allow us to determine the EC50 value for the CNGB1b and CNGA4 subunit in functional heterotetrameric channels. Patch-clamp”, “x. The concentration-activation data were fitted using the Hill equation where EC50 is the ligand concentration of half maximum effect and H the Hill coefficient.” for “x.”

[6] = molecular target: T4, CNGA2:B1b channels (Rattus norvegicus, UniProt A0A8I5ZN27+Q00195); assay: as above; assay type: biochemical
T4 construct: expressed in transfected cells; host or cells: Xenopus laevis oocytes (cRNA injection), excised inside-out patches
Protocol: as §1, with “Patch-clamp” for “In order to determine the apparent affinity of the modulatory subunits in heterotetrameric CNGA2:A4:B1b channels for cGMP, we coexpressed each of them with disabled neighbored subunits, generating themselves activation effects only at much higher ligand concentrations. In case of two well-separated current components, this would allow us to determine the EC50 value for the CNGB1b and CNGA4 subunit in functional heterotetrameric channels. Patch-clamp”, “x. The concentration-activation data were fitted using the Hill equation where EC50 is the ligand concentration of half maximum effect and H the Hill coefficient.” for “x.”

T2 sequence (Q00195 whole entry R538E): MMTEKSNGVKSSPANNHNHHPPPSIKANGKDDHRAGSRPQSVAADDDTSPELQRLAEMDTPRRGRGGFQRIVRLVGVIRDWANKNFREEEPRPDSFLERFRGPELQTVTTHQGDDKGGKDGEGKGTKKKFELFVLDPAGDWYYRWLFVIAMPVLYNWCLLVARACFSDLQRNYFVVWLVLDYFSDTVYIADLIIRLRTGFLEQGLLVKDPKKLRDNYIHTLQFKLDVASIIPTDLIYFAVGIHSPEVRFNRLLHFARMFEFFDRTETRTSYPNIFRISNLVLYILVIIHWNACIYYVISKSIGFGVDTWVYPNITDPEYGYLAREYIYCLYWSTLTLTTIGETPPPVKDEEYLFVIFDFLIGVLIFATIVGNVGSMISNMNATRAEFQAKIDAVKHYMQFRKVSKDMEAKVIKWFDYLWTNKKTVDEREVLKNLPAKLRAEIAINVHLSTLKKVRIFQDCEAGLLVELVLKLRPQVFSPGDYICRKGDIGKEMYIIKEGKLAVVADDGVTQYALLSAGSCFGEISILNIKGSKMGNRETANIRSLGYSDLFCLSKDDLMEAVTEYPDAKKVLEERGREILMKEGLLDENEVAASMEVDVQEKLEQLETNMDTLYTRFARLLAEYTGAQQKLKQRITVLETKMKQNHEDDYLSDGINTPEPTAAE
T2 sequence (Q64359 whole entry R430E): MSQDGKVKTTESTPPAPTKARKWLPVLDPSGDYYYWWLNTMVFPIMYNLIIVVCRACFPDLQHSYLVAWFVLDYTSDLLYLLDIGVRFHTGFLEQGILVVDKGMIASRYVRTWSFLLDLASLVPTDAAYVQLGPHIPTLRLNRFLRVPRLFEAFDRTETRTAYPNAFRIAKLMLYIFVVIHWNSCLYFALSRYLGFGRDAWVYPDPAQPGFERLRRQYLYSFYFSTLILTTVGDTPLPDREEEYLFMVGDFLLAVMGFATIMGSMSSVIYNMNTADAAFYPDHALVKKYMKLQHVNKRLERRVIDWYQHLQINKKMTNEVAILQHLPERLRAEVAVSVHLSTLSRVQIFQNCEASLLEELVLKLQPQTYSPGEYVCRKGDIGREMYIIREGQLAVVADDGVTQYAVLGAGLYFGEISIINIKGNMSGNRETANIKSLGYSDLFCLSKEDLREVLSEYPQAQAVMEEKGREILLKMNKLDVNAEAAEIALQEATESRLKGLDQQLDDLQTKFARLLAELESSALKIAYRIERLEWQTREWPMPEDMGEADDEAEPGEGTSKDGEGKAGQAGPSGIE
T2 sequence (A0A8I5ZN27 1-858 isoform A0A8I5ZN27-2, stated change not applied): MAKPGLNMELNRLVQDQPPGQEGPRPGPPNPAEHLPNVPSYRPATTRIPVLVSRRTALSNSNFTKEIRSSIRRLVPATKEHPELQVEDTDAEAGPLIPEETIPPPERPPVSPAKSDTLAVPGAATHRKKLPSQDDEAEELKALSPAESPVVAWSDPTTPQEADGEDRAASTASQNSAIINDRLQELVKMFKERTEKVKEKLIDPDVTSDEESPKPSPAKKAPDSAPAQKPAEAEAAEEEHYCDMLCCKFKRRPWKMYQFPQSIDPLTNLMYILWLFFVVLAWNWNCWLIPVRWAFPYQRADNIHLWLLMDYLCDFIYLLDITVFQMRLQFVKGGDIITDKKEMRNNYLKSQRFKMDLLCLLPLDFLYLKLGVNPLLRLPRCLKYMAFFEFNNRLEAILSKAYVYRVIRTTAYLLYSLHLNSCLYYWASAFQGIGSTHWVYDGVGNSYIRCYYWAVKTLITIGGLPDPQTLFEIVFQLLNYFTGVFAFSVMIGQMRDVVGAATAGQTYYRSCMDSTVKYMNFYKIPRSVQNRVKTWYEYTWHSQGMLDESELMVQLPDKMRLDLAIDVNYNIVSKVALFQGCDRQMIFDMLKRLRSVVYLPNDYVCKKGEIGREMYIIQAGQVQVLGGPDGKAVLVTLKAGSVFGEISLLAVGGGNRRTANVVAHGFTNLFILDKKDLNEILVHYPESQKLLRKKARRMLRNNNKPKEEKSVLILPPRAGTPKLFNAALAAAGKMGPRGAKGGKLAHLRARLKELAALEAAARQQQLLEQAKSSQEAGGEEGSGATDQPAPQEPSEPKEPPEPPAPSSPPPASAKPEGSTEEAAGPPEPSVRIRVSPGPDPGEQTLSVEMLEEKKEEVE
T3 sequence (Q00195 whole entry): as the sequence (Q00195 whole entry R538E) above, with E538R counted along it
T3 sequence (Q64359 whole entry): as the sequence (Q64359 whole entry R430E) above, with E430R counted along it
T4 sequence (Q00195 whole entry): as the sequence (Q00195 whole entry R538E) above, with E538R counted along it
T4 sequence (A0A8I5ZN27 1-858 isoform A0A8I5ZN27-2): as the sequence (A0A8I5ZN27 1-858 isoform A0A8I5ZN27-2, stated change not applied) above
T1 sequence (Q00195 whole entry T539M): as the sequence (Q00195 whole entry R538E) above, with E538R, T539M counted along it
T1 sequence (Q64359 whole entry R430E): as the sequence (Q64359 whole entry R430E) above
T1 sequence (A0A8I5ZN27 1-858 isoform A0A8I5ZN27-2 R657E): as the sequence (A0A8I5ZN27 1-858 isoform A0A8I5ZN27-2, stated change not applied) above, with R657E counted along it

Row | Compound | activation ([1]; 10 μM fcGMP, homotetrameric CNGA2TM) | Ligand binding to CNGA4 [2] | Ligand binding to CNGB1b [2] | degree of activation induced by binding to CNGA4 ([3]; CNGA2TM:A4 channels) | EC50 ([3]; in the presence of CNGA2TM only, read-out: EC50,h value for CNGA4) | activation (I/Imax) ([4]; 10 μM fcGMP, normalized to current at 4 mM cGMP) | EC50 ([1]; CNGA2TM, Equation 1, ref Nache et al., 2012) | EC50 ([5]; Equation 1) | H ([5]; Hill coefficient) | EC50 ([6]; Equation 1) | H ([6]; Hill coefficient) | H1 ([4]; Hill coefficient of low affinity component, CNGA2RE:A4RE:B1b, +100 mV) | a (contribution of the high affinity component) ([4]; fraction, CNGA2RE:A4RE:B1b, Equation 2) | EC50 ([4]; high affinity component (action of CNGB1b), CNGA2RE:A4RE:B1b, Equation 2, +100 mV, read-out: EC50,h) | EC50 ([4]; low affinity component, CNGA2RE:A4RE:B1b, Equation 2, +100 mV, read-out: EC50,l) | maximum contribution of CNGB1b to channel activation (a) ([4]; of the maximum channel activity generated by all subunits, CNGA2RE:A4RE:B1b)
1 | 8-[DY-547]-AET-cGMP [fcGMP] | negligible activation | − | − | ~ 12% | 6.8 µM | 1.6 ± 0.4% |  |  |  |  |  |  |  |  |  | 
2 | Nc1nc2c(ncn2[C@@H]2O[C@@H]3COP(=O)(O)O[C@H]3[C@H]2O)c(=O)[nH]1 [cGMP] |  |  |  |  |  |  | 10.4 µM | 1.28 µM | 1.7 | 1.9 µM | 2.0 | 1.2 | 0.07 | 3.6 µM | 178 µM | 7.2% and ~ 7%
